Consider 32 compounds from patent publication US20190127359A1, “Compounds & Methods for the Enhanced Degradation of Targeted Proteins & Other Polypeptides by an E3 Ubiquitin Ligase” (YALE UNIVERSITY, priority 2012, published 2019).

Molecules are shown by their SMILES. Read-outs that look alike come from different tables or passages of the source.

The target of the test is VHL (Homo sapiens, UniProt P40337). In words: Fluorescence polarization competition assay (HIF-1α peptide FP displacement). On the technique in general: Fluorescence polarisation rises when a labelled molecule tumbles more slowly, as on binding a larger partner.

By IC50 is commonly meant the concentration that gives 50% inhibition. For `Cc1cc(CC(=O)N2C[C@H](O)C[C@H]2C(=O)NCc2ccc(-c3c(C)noc3C)cc2)on1` [VL138], the IC50 came to 70 µM (IC50 (μM) 1% DMSO, 1% DMSO) and 52.2 µM (IC50 (μM) 10% DMSO, 10% DMSO).
The corresponding values for `O=C(NCc1ccc(Cl)cc1)[C@@H]1C[C@@H](O)CN1C(=O)c1cccc2[nH]cnc12` [VL125] are 568 µM and 790 µM.
`N#Cc1cc(Br)cc(C(=O)N2C[C@H](O)C[C@H]2C(=O)NCc2ccc(Cl)cc2)c1` [VL059]: the IC50 (IC50 (μM) 10% DMSO, 10% DMSO) was found to be 205 µM.
Still for that read-out and setting: next, `O=C(NCc1ccc(Cl)cc1)[C@@H]1C[C@@H](O)CN1C(=O)CCN1CCCCC1` [VL104]: more than 1000 µM.
As to `Cc1cc(CC(=O)N2C[C@H](O)C[C@H]2C(=O)NCc2ccc(-c3c(C)n[nH]c3C)cc2)on1` [VL152], the IC50 by setting is: (IC50 (μM) 1% DMSO, 1% DMSO) 32 µM; (IC50 (μM) 10% DMSO, 10% DMSO) 22.8 µM.
`Cc1cc(CC(=O)N2C[C@H](O)C[C@H]2C(=O)NCc2ccc(C(F)(F)F)cc2)on1` [VL046] registered an IC50 (IC50 (μM) 10% DMSO, 10% DMSO) of 215 µM.
Same read-out and setting: next, `Cc1cc(CC(=O)N2C[C@H](O)C[C@H]2C(=O)NCc2cccnc2)on1` [VL036]: 744 µM.
On the same count and under the same terms, next, `N#Cc1cccc(C(=O)N2C[C@H](O)C[C@H]2C(=O)NCc2ccc(Cl)cc2)c1` [VL077]: 8.9 µM.
Take `Cc1cc(CC(=O)N2C[C@H](O)C[C@H]2C(=O)NCCc2ccc(O)cc2)on1` [VL002, (2S,4R)-4-hydroxy-N-(4-hydroxyphenethyl)-1-(2-(3-methylisoxazol-5-yl)acetyl)pyrrolidine-2-carboxamide]: the half-maximal inhibitory concentration (IC50) is 241 µM (IC50 (μM) 10% DMSO, 10% DMSO) and 120 µM (read-out: IC50 (μM) 1% DMSO, 1% DMSO).
The compound `CON(C)C(=O)c1ccc(CNC(=O)[C@@H]2C[C@@H](O)CN2C(=O)Cc2cc(C)no2)cc1` [VL093] returned a 50% inhibitory concentration (IC50) (IC50 (μM) 10% DMSO, 10% DMSO) of 510 µM.
On to `O=C(NCc1ccc(Cl)cc1)[C@@H]1C[C@@H](O)CN1C(=O)c1ccc2cn[nH]c2c1` [VL127], for which the IC50 came to 73 µM (IC50 (μM) 1% DMSO, 1% DMSO) and 47.7 µM (IC50 (μM) 10% DMSO, 10% DMSO).
As to `O=C(NCc1ccc(Cl)cc1)[C@@H]1C[C@@H](O)CN1C(=O)c1ccnc(Cl)c1` [VL099], the IC50 (IC50 (μM) 10% DMSO, 10% DMSO) stood at 39.6 µM.
In turn, `O=C(NCc1cccc(Cl)c1)[C@@H]1C[C@@H](O)CN1C(=O)Cc1nnn[nH]1` [VL012] had a half-inhibitory concentration (IC50) (IC50 (μM) 10% DMSO, 10% DMSO) of more than 1000 µM.
For `O=C(NCc1ccc(Cl)cc1)[C@@H]1C[C@@H](O)CN1C(=O)c1ccncc1` [VL096], the IC50 (IC50 (μM) 10% DMSO, 10% DMSO) was 32.5 µM.
On the same count and under the same terms, next, `Cc1cc(CC(=O)N2C[C@H](O)C[C@H]2C(=O)N2CCc3ccccc3C2)on1` [VL039]: more than 1000 µM.
Regarding `CC(C)[Si](c1cn(CC(=O)N2C[C@H](O)C[C@H]2C(=O)NCc2ccc(-c3ccccc3)cc2)nn1)(C(C)C)C(C)C` [VL135], the “IC50 (μM) 10% DMSO” value (10% DMSO) was “Inactive”. The IC50 (IC50 (μM) 1% DMSO, 1% DMSO) was more than 1000 µM.
Take `O=C(NCc1ccc(Cl)cc1)[C@@H]1C[C@@H](O)CN1C(=O)c1cccc2cccnc12` [VL129]: the IC50 by setting is: (IC50 (μM) 1% DMSO, 1% DMSO) 493 µM; (IC50 (μM) 10% DMSO, 10% DMSO) 760 µM.
For `Cc1cc(CC(=O)N2C[C@H](O)C[C@H]2C(=O)NCCc2ccc(O)cc2)on1` [Compound 2], the IC50 (Table 1A, binding of initial ligands to VHL, average of three independent trials, each in triplicate) was 120 µM. For the same compound, the “displacement of the fluorescent HIF-1α peptide” value (fluorescence polarization, result in words) is “able to displace the fluorescent peptide albeit at high concentrations”.
As to `Cc1cc(CC(=O)N2C[C@H](O)C[C@H]2C(=O)N[C@H](C)c2ccccc2)on1` [VL033], the IC50 (IC50 (μM) 10% DMSO, 10% DMSO) was more than 1000 µM.
On to `Cc1cc(CC(=O)N2C[C@H](O)C[C@H]2C(=O)NCc2ccc([N+](=O)[O-])cc2)on1` [VL048], for which the half-inhibitory concentration (IC50) (IC50 (μM) 10% DMSO, 10% DMSO) came out at 24.8 µM.
Take `Cc1cc(CC(=O)N2C[C@H](O)C[C@H]2C(=O)OCc2ccc(Cl)cc2)on1` [VL144]: the IC50 runs as follows: (IC50 (μM) 1% DMSO, 1% DMSO) more than 1000 µM; (IC50 (μM) 10% DMSO, 10% DMSO) more than 1000 µM.
On to `Nc1ccccc1C(=O)N1C[C@H](O)C[C@H]1C(=O)NCc1ccc(Cl)cc1` [VL070], for which the IC50 (IC50 (μM) 10% DMSO, 10% DMSO) turned out to be 38.2 µM.
On the same count and under the same terms, next, `O=C(NCCc1ccc(O)cc1)[C@@H]1C[C@@H](O)CN1C(=O)Cc1nnn[nH]1` [VL005]: more than 1000 µM.
In the case of `COCc1cn(CC(=O)N2C[C@H](O)C[C@H]2C(=O)NCc2ccc(Cl)cc2)nn1` [VL141], the IC50 is, setting by setting: (IC50 (μM) 1% DMSO, 1% DMSO) 220 µM; (IC50 (μM) 10% DMSO, 10% DMSO) 192 µM.
The compound `Cc1cc(CC(=O)N2C[C@H](O)C[C@H]2C(=O)NCc2ccc(S(N)(=O)=O)cc2)on1` [VL087] had an IC50 (IC50 (μM) 10% DMSO, 10% DMSO) of 103 µM.
As to `O=C(NCc1ccc(Cl)cc1)[C@@H]1C[C@@H](O)CN1C(=O)Cn1ccnc1` [VL156], the IC50 reads like this: (IC50 (μM) 1% DMSO, 1% DMSO) more than 1000 µM; (IC50 (μM) 10% DMSO, 10% DMSO) more than 1000 µM.
Take `O=C(NCc1ccc(Cl)cc1)[C@@H]1C[C@@H](O)CN1C(=O)c1cccc(Cl)c1` [VL054]: the IC50 (IC50 (μM) 10% DMSO, 10% DMSO) came to 140 µM.
Consider `Cc1cc(CC(=O)N2C[C@H](O)C[C@H]2C(=O)NCc2ccc(-c3c[nH]nn3)cc2)on1` [VL140], for which the IC50 is 17 µM (IC50 (μM) 1% DMSO, 1% DMSO) and 10.3 µM (IC50 (μM) 10% DMSO, 10% DMSO).
Take `Cc1ccc(S(=O)(=O)N2C[C@H](O)C[C@H]2C(=O)Nc2ccc(Br)cc2F)cc1` [VL009]: the “IC50 (μM) 10% DMSO” value (10% DMSO) is recorded as “Inactive”.
The compound `Cc1cc(CC(=O)N2C[C@H](O)C[C@H]2C(=O)NCc2ccc(C(C)(C)C)cc2)on1` [VL031] displayed an IC50 (IC50 (μM) 10% DMSO, 10% DMSO) of 68.5 µM.
Where the note is “IC50 (μM) 10% DMSO, 10% DMSO”, `CS(=O)(=O)c1ccc(CC(=O)N2C[C@H](O)C[C@H]2C(=O)NCc2ccc(Cl)cc2)cc1` [VL058] yielded an IC50 of more than 1000 µM.
On to `O=C(NCc1ccc(Cl)cc1)[C@@H]1C[C@@H](O)CN1C(=O)c1cccc(C(F)(F)F)c1` [VL078], for which the IC50 (IC50 (μM) 10% DMSO, 10% DMSO) stood at 60.2 µM.
